Measurements reported in PubChem BioAssay AID1963438 (Molecular Pharmacology Branch, DTP, NCI, 2024).
pIC50: −log10 of the molar value.

Test system: NCI-H510 multicellular tumor spheroid growth, % test/control
Assay: Anticancer human tumor NCI-H510 cell line growth inhibition [Asc];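 also: spheroids exposed to agents for 7 days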;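 as to viability, T/C: 100% = DMSO vehicle control wells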
Conditions: for pIC50: curve of first compound; for viability, T/C: stronger effect = lower value; active = viability on the fitted dose curve at most 10% of control; inactive = the rest
Method in brief: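 Complex solid-tumor spheroids incorporating human endothelial and mesenchymal stem cells received single agents or combinations over half-log dilution ranges anchored to clinical Cmax.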

CNC(C)C(=O)NC1CN(S(=O)(=O)c2cccc(S(=O)(=O)N3CCC4CCC(C(=O)NC(c5ccccc5)c5ccccc5)N4C(=O)C(NC(=O)C(C)NC)C3)c2)CCC2CCC(C(=O)NC(c3ccccc3)c3ccccc3)N2C1=O (stereo not given) + CCN1C(C(=O)NC23CCC(C(=O)O)(CC2)CC3)C(c2cccc(Cl)c2F)C2(C(=O)Nc3cc(Cl)ccc32)C12CCCCC2
< 6.00: pIC50 (second compound 0.03 µM) | pIC50 (second compound 0.0949 µM) | pIC50 (second compound 0.3 µM) | pIC50 (second compound 0.949 µM) | pIC50 (second compound 3 µM)
inactive: viability, T/C (second compound 0.03 µM, first compound 0.00316 µM) 96.8% | viability, T/C (second compound 0.03 µM, first compound 0.01 µM) 81.6% | viability, T/C (second compound 0.03 µM, first compound 0.0316 µM) 96.8% | viability, T/C (second compound 0.03 µM, first compound 0.1 µM) 101% | viability, T/C (second compound 0.03 µM, first compound 0.316 µM) 95.6% | viability, T/C (second compound 0.03 µM, first compound 1 µM) 97.8% | viability, T/C (second compound 0.0949 µM, first compound 0.00316 µM) 98.5% | viability, T/C (second compound 0.0949 µM, first compound 0.01 µM) 104% | viability, T/C (second compound 0.0949 µM, first compound 0.0316 µM) 87.8% | viability, T/C (second compound 0.0949 µM, first compound 0.1 µM) 77.2% | viability, T/C (second compound 0.0949 µM, first compound 0.316 µM) 105% | viability, T/C (second compound 0.0949 µM, first compound 1 µM) 83.5% | viability, T/C (second compound 0.3 µM, first compound 0.00316 µM) 81.6% | viability, T/C (second compound 0.3 µM, first compound 0.01 µM) 106% | viability, T/C (second compound 0.3 µM, first compound 0.0316 µM) 106% | viability, T/C (second compound 0.3 µM, first compound 0.1 µM) 93.4% | viability, T/C (second compound 0.3 µM, first compound 0.316 µM) 89.8% | viability, T/C (second compound 0.3 µM, first compound 1 µM) 83.7% | viability, T/C (second compound 0.949 µM, first compound 0.00316 µM) 110% | viability, T/C (second compound 0.949 µM, first compound 0.01 µM) 99.8% | viability, T/C (second compound 0.949 µM, first compound 0.0316 µM) 118% | viability, T/C (second compound 0.949 µM, first compound 0.1 µM) 96.6% | viability, T/C (second compound 0.949 µM, first compound 0.316 µM) 102% | viability, T/C (second compound 0.949 µM, first compound 1 µM) 81.7% | viability, T/C (second compound 3 µM, first compound 0.00316 µM) 86.5% | viability, T/C (second compound 3 µM, first compound 0.01 µM) 92% | viability, T/C (second compound 3 µM, first compound 0.0316 µM) 117% | viability, T/C (second compound 3 µM, first compound 0.1 µM) 84.1% | viability, T/C (second compound 3 µM, first compound 0.316 µM) 87.3% | viability, T/C (second compound 3 µM, first compound 1 µM) 110%

Cc1nc(N2CCC3(CC2)COC(C)C3N)c(CO)nc1Sc1ccnc(N)c1Cl (stereo not given) + CCN1C(C(=O)NC23CCC(C(=O)O)(CC2)CC3)C(c2cccc(Cl)c2F)C2(C(=O)Nc3cc(Cl)ccc32)C12CCCCC2
inactive: viability, T/C (second compound 0.03 µM, first compound 0.00949 µM) 103% | viability, T/C (second compound 0.03 µM, first compound 0.03 µM) 119% | viability, T/C (second compound 0.03 µM, first compound 0.0949 µM) 119% | viability, T/C (second compound 0.03 µM, first compound 0.3 µM) 119% | viability, T/C (second compound 0.03 µM, first compound 0.949 µM) 114% | viability, T/C (second compound 0.03 µM, first compound 3 µM) 95.9% | viability, T/C (second compound 0.0949 µM, first compound 0.00949 µM) 110% | viability, T/C (second compound 0.0949 µM, first compound 0.03 µM) 91.5% | viability, T/C (second compound 0.0949 µM, first compound 0.0949 µM) 123% | viability, T/C (second compound 0.0949 µM, first compound 0.3 µM) 102% | viability, T/C (second compound 0.0949 µM, first compound 0.949 µM) 104% | viability, T/C (second compound 0.0949 µM, first compound 3 µM) 84.3% | viability, T/C (second compound 0.3 µM, first compound 0.00949 µM) 101% | viability, T/C (second compound 0.3 µM, first compound 0.03 µM) 116% | viability, T/C (second compound 0.3 µM, first compound 0.0949 µM) 104% | viability, T/C (second compound 0.3 µM, first compound 0.3 µM) 101% | viability, T/C (second compound 0.3 µM, first compound 0.949 µM) 110% | viability, T/C (second compound 0.3 µM, first compound 3 µM) 90.6% | viability, T/C (second compound 0.949 µM, first compound 0.00949 µM) 116% | viability, T/C (second compound 0.949 µM, first compound 0.03 µM) 105% | viability, T/C (second compound 0.949 µM, first compound 0.0949 µM) 98.5% | viability, T/C (second compound 0.949 µM, first compound 0.3 µM) 96% | viability, T/C (second compound 0.949 µM, first compound 0.949 µM) 91.9% | viability, T/C (second compound 0.949 µM, first compound 3 µM) 102% | viability, T/C (second compound 3 µM, first compound 0.00949 µM) 99.9% | viability, T/C (second compound 3 µM, first compound 0.03 µM) 97.5% | viability, T/C (second compound 3 µM, first compound 0.0949 µM) 102% | viability, T/C (second compound 3 µM, first compound 0.3 µM) 120% | viability, T/C (second compound 3 µM, first compound 0.949 µM) 88.2% | viability, T/C (second compound 3 µM, first compound 3 µM) 115%
< 5.52: pIC50 (second compound 0.03 µM) | pIC50 (second compound 0.0949 µM) | pIC50 (second compound 0.3 µM) | pIC50 (second compound 0.949 µM) | pIC50 (second compound 3 µM)
